# In US20230248029A1, “Single-Serving Beverage Ingredient Containers Comprising Nanoparticulate Cannabidiol” (priority 2022, published 2023):
# Tests used:
# [1] = CBD extraction in brewed coffee beverage, pure CBD powder (HPLC); assay type: physicochemical
# Description: To test the extraction efficiency of pure CBD powder in a coffee brewing process, the foil lids of each of several single-serving coffee containers adapted for use in a Keurig single-serving coffee machine were peeled back, a small depression was made in the top of the coffee grounds, and a measured quantity of CBD powder was placed in the depression. The foil lids were then resealed, and the containers were shaken for 30 seconds to disperse the CBD powder throughout the mass of coffee grounds. Each of the containers was then used in a Keurig single-serving coffee machine to brew either a 160 mL coffee beverage or a 300 mL coffee beverage. Mixing the CBD powder throughout the coffee grounds allowed the CBD to melt as hot water flowed downward from the top of the container and through the mass of coffee grounds during the coffee brewing process; relative to simply disposing the CBD powder in the bottom of the container, this reduces the amount of CBD extracted into the coffee beverage but improves the extent to which the CBD is mixed and dispersed with other chemical components extracted with the coffee, thereby inhibiting the formation of a CBD film in the brewed coffee beverage.
# For each brewed coffee beverage, the beverage was poured into three separate bottles; a small sample was taken from each bottle and diluted in 10× (by volume) ethanol. This mixture was then shaken and centrifuged to remove coffee components and dissolve the CBD. The supernatant was removed from the centrifuged samples and measured by high-performance liquid chromatography using an Agilent Zorbax Eclipse XDB-C8 column. The mobile phase was a 1 mL/min gradient of 70:30 (vol/vol) acetonitrile:water to 80:20 (vol/vol) acetonitrile:water over 8 minutes. A 20 μL injection was used and the column was kept at 25° C. Absorbance was measured at 210 nm with a 5 nm bandwidth.
# [2] = oral; cited from earlier work
# [3] = CBD film formation on the surface of the brewed coffee beverage (visual); assay type: physicochemical; details: Keurig-brewed coffee beverage, visual (FIG. 5A, 5B)
# Description: This variability is expected due to the difference in particle size between the CBD powder and the ground coffee, which makes uniform dispersion of the CBD powder throughout the coffee grounds difficult.
# Without wishing to be bound by any particular theory, the present inventors hypothesize that more concentrated droplets may be effective to increase the CBD extraction from F68 formulations.
# This is because, in the use of Keurig single-serving coffee machines (and in conventional drip coffee makers), the water used is at or near its boiling point, which in any event is much higher than the melting point of CBD (66° C.), and the colloid droplets therefore cannot resist these high temperatures, causing coalescence of the CBD. In some embodiments, therefore, it may be desirable to brew the coffee beverage at a lower temperature, or to brew a conventional (non-CBD-containing) coffee beverage at typical near-boiling temperatures and then mix in a CBD colloid as described herein after the coffee beverage has cooled to below the melting point of CBD (but still at or above the temperature at which the consumer desires to consume the coffee, which on average is about 60° C.); it is to be expressly understood that such embodiments are within the scope of the present disclosure.
# [4] = CBD mass 50 mg, beverage volume 160 mL
# [5] = CBD mass 50 mg, beverage volume 300 mL
# [6] = CBD mass 75 mg, beverage volume 160 mL
# [7] = CBD mass 75 mg, beverage volume 300 mL
# [8] = CBD mass 100 mg, beverage volume 160 mL
# [9] = CBD mass 100 mg, beverage volume 300 mL
structure (smiles),measurement,setting,value
"C=C(C)[C@@H]1CCC(C)=C[C@H]1c1c(O)cc(CCCCC)cc1O [CBD, cannabidiol]",CBD extraction,[1]; [4],22.0 ± 9.6%
same,CBD in beverage,[1]; [4],8.9 ± 4.4 mg
same,CBD extraction,[1]; [5],42.1 ± 10.0%
same,CBD in beverage,[1]; [5],20.3 ± 5.9 mg
same,CBD extraction,[1]; [6],8.3 ± 6.2%
same,CBD in beverage,[1]; [6],11.3 ± 4.8 mg
same,CBD extraction,[1]; [7],15.8 ± 5.2%
same,CBD in beverage,[1]; [7],11.9 ± 3.9 mg
same,CBD extraction,[1]; [8],21.0 ± 14.8%
same,CBD in beverage,[1]; [8],21.0 ± 14.8 mg
same,CBD extraction,[1]; [9],11.9 ± 3.5%
same,CBD in beverage,[1]; [9],11.9 ± 3.5 mg
same,Maximum theoretical bioavailability of orally administered CBD,[2],19%
same,CBD film formation in the brewed coffee beverage,[3],"large, thick films"
